Measured values published in US20180022780A1, “STABILIZATION ADRENOMEDULLIN DERIVATIVES AND USE THEREOF” (priority 2014, published 2018).
pEC50: −log10 of the molar value. Bridge positions count the residues as written; N and C are the ends. Square brackets hold non-standard residues; d marks the D form. Peptide text beside a SMILES is read from it. Dap = NC[C@H](N)C(=O)O

Legend:
[1] = molecular target: T1, human adrenomedullin-receptor (Homo sapiens, UniProt O60895+Q16602); assay: Tests on a recombinant adrenomedullin-receptor reporter cell (CHO, aequorin luminescence); assay type: cell-based; details: Table 1, CHO cell line carrying the human adrenomedullin-receptor
T1 construct: expressed in transfected cells; host or cells: CHO (Chinese hamster ovary) recombinant reporter cell line with aequorin
T1 sequence (Q16602 23-461): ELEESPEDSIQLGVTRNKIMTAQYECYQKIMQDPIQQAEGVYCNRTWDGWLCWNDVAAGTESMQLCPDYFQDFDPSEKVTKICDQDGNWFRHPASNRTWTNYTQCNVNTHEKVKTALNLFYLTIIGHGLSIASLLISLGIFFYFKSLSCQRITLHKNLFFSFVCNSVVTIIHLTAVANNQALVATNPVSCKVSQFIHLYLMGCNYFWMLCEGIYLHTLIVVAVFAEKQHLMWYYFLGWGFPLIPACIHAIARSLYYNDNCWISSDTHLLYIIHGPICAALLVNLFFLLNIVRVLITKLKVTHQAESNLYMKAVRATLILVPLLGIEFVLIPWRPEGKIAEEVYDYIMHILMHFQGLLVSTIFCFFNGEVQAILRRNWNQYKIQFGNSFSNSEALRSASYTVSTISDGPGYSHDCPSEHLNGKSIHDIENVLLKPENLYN
T1 sequence (O60895 43-175): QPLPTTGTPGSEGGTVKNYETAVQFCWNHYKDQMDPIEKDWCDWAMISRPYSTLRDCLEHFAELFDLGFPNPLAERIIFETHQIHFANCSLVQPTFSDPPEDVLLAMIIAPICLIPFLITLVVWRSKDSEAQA
Description: Activation of the receptor by ligands was measured by aequorin luminescence. Construction of the cell line and measurement procedure has been described in detail [Wunder F., Rebmann A., Geerts A, and Kalthof B., Mol Pharmacol, 73, 1235-1243 (2008)]. In brief: Cells were seeded on opaque 384-well microtiter plates at a density of 4000 cells/well and were grown for 24 h. After removal of culture medium, cells were loaded for 3 h with 0.6 μg/ml coelenterazine in Ca^2+-free Tyrode solution (130 mM sodium chloride, 5 mM potassium chloride, 20 mM HEPES (4-(2-hydroxyethyl)-1-piperazineethanesulfonic acid), 1 mM magnesium chloride, and 4.8 mM sodium hydrogen carbonate, pH 7.4) supplemented with 0.2 mM 3-Isobutyl-1-methylxanthine (IBMX) in a cell culture incubator. Examples were added for 6 min in calcium^2+-free Tyrode solution containing 0.1% bovine serum albumin. Immediately before adding calcium^2+ to a final concentration of 3 mM measurement of the aequorin luminescence was started by use of a suitable luminometer. Luminescence was measured for 60 s. In a typical experiment compounds were tested in a concentration range of 1×10^−13 to 3×10^−6 M.

[2] = molecular target: T2, CLR fused to EYFP and RAMP2 fused to ECFP (Homo sapiens, UniProt O60895+Q16602); assay: cAMP assay (CRE luciferase reporter, HEK-293 cells transiently co-transfected with CLR and RAMP2); assay type: cell-based; details: Table 2, cAMP assay; HEK-293, CLR/RAMP2, CRE luciferase, 3 h stimulation, normalized to [G^14]ADM(14-52)
T2 construct: EYFP; ECFP; expressed in transfected cells; host or cells: HEK-293 cells, transient co-transfection
T2 sequence (Q16602 23-461): as the sequence (Q16602 23-461) above
T2 sequence (O60895 43-175): as the sequence (O60895 43-175) above
Summary of the method: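 HEK-293 cells transiently co-transfected with CLR-EYFP, RAMP2-ECFP and a CRE-luc2P luciferase reporter were stimulated with ligands (eight concentrations, triplicate) for 3 h at 37 °C. Luminescence was corrected to 5 µM forskolin, normalized to [G^14]ADM(14-52) standard, and fitted by non-linear regression to dose-response curves.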

Row | Structure (SMILES) | pEC50 [1] | pEC50 [2]
1 | CC[C@H](C)[C@H](NC(=O)[C@H](CCC(N)=O)NC(=O)[C@H](Cc1c[nH]cn1)NC(=O)[C@H](C)NC(=O)[C@H](CC(C)C)NC(=O)[C@H](CCCCN)NC(=O)[C@H](CCC(N)=O)NC(=O)[C@@H](NC(=O)[C@@H](NC(=O)[C@@H]1CCCCNC(=O)C[C@H](NC(=O)CNC(=O)CN)C(=O)N[C@@H](CCCNC(=N)N)C(=O)N[C@@H](Cc2ccccc2)C(=O)NCC(=O)N[C@@H]([C@@H](C)O)C(=O)N1)[C@@H](C)O)C(C)C)C(=O)N[C@@H](Cc1ccc(O)cc1)C(=O)N[C@@H](CCC(N)=O)C(=O)N[C@@H](Cc1ccccc1)C(=O)N[C@H](C(=O)N[C@@H](CC(=O)O)C(=O)N[C@@H](CCCCN)C(=O)N[C@@H](CC(=O)O)C(=O)N[C@@H](CCCCN)C(=O)N[C@@H](CC(=O)O)C(=O)N[C@@H](CC(N)=O)C(=O)N[C@H](C(=O)N[C@@H](C)C(=O)N1CCC[C@H]1C(=O)N[C@@H](CCCNC(=N)N)C(=O)N[C@@H](CO)C(=O)N[C@@H](CCCCN)C(=O)N[C@H](C(=O)N[C@@H](CO)C(=O)N1CCC[C@H]1C(=O)N[C@@H](CCC(N)=O)C(=O)NCC(=O)N[C@@H](Cc1ccc(O)cc1)C(N)=O)[C@@H](C)CC)C(C)C)[C@@H](C)O [Example 22, ((3S,9S,12S,15S,23S)-15-(2-(2-aminoacetamido)acetamido)-9-benzyl-12-(3-guanidinopropyl)-3-((R)-1-hydroxyethyl)-2,5,8,11,14,17-hexaoxo-1,4,7,10,13,18-hexaazacyclotricosane-23-carbonyl)-L-threonyl-ADM(22-52)] (H-GGDRFGTKTVQKLAHQIYQFTDKDKDNVAPRSKISPQGY-NH2; lactam 3-8) | 7.82 | 8.64
2 | CC[C@H](C)[C@H](NC(=O)[C@H](CCC(N)=O)NC(=O)[C@H](Cc1c[nH]cn1)NC(=O)[C@H](C)NC(=O)[C@H](CC(C)C)NC(=O)[C@H](CCCCN)NC(=O)[C@H](CCC(N)=O)NC(=O)[C@@H](NC(=O)[C@@H](NC(=O)[C@@H]1CNC(=O)C[C@H](NC(=O)CNC(=O)CN)C(=O)N[C@@H](CCCNC(=N)N)C(=O)N[C@@H](Cc2ccccc2)C(=O)NCC(=O)N[C@@H]([C@@H](C)O)C(=O)N1)[C@@H](C)O)C(C)C)C(=O)N[C@@H](Cc1ccc(O)cc1)C(=O)N[C@@H](CCC(N)=O)C(=O)N[C@@H](Cc1ccccc1)C(=O)N[C@H](C(=O)N[C@@H](CC(=O)O)C(=O)N[C@@H](CCCCN)C(=O)N[C@@H](CC(=O)O)C(=O)N[C@@H](CCCCN)C(=O)N[C@@H](CC(=O)O)C(=O)N[C@@H](CC(N)=O)C(=O)N[C@H](C(=O)N[C@@H](C)C(=O)N1CCC[C@H]1C(=O)N[C@@H](CCCNC(=N)N)C(=O)N[C@@H](CO)C(=O)N[C@@H](CCCCN)C(=O)N[C@H](C(=O)N[C@@H](CO)C(=O)N1CCC[C@H]1C(=O)N[C@@H](CCC(N)=O)C(=O)NCC(=O)N[C@@H](Cc1ccc(O)cc1)C(N)=O)[C@@H](C)CC)C(C)C)[C@@H](C)O [Example 26, ((3S,6S,12S,15S,18S)-18-(2-(2-aminoacetamido)acetamido)-12-benzyl-15-(3-guanidinopropyl)-6-((R)-1-hydroxyethyl)-5,8,11,14,17,20-hexaoxo-1,4,7,10,13,16-hexaazacycloicosane-3-carbonyl)-L-threonyl-ADM(22-52)] (H-GGDRFGT[Dap]TVQKLAHQIYQFTDKDKDNVAPRSKISPQGY-NH2; lactam 3-8) | 7.49 | < 6.00
